From patent US10328033B2, “Methods and biocompatible compositions to achieve sustained drug release in the eye” (Integral Biosystems LLC, priority 2014, dated 2019)

Test: Photo-oxidation stress by high intensity UV light
Format: physicochemical
Conditions: UV 254 nm, 24 hours, in buffer alone
Experimental: Nanomesh wafers (ML-ES-06-31) were tested for photo-oxidative degradation by high intensity UV light (254 nm, for 24 hours). […] In contrast, 50% of the travoprost in buffer alone was degraded under these conditions.

Which travoprost degraded does the source give for `CC(C)OC(=O)CCC/C=C\C[C@@H]1[C@@H](/C=C/[C@@H](O)COc2cccc(C(F)(F)F)c2)[C@H](O)C[C@@H]1O` [travoprost] here?
Its travoprost degraded is 50%.
